# Data from paper PMC5993640 (European journal of medicinal chemistry, 2018).
# Where “and” joins values, the source holds several entries; their conditions need not be identical. Equal values may be shown once. Read-outs that look alike come from different tables or passages of the source.
# Legend:
# HIV-1HXB2 = format: cell-based
# hERG potassium channel = hERG potassium channel (Homo sapiens, UniProt Q12809); assay: hERG channel inhibition, whole-cell patch clamp in HEK293 cells; format: cell-based; details: HEK293 cells stably transfected with hERG cDNA
# [1] = Metabolic stability in human liver microsomes; details: 3 μM
# [2] = Cytotoxicity in U87-CD4-CXCR4 cells; format: cell-based; details: human
# Plasma protein binding = format: in vitro ADME
# Aqueous solubility = format: physicochemical; details: universal aqueous buffer
# VSV-G = format: cell-based; details: U87-CD4-CXCR4 cells
# [3] = system: HIV-1 mediated cell-cell fusion; assay: HIV-1 mediated cell-cell fusion inhibition assay; format: cell-based; details: HL2/3 effector and TZM-bl target cells
# HIV-1IIIB = assay: Multi-cycle infection assay in MT-2 cells
# MT-2 cells = assay: Cytotoxicity in MT-2 cells; format: cell-based; details: read-out: Toxicity CC50 (MT-2)
# TZM-bl cells = assay: Cytotoxicity in TZM-bl cells; format: cell-based; details: read-out: Toxicity CC50 (TZM-bl)
# [4] = system: HIV-1HXB2 WT and Env gp120 mutated pseudoviruses; assay: microbe, parasite or virus in culture; format: cell-based; details: Human immunodeficiency virus 1, U87.CD4.CXCR4
# [5] = Cytotoxicity in TZM-bl cells; format: cell-based; details: human
# [6] = pH 7.4, Solubility Range when prepared at 500 μM, With 5% DMSO, pH7.4 (first line)
# [7] = pH 7.4, aqueous solubility, DMSO concentration of 2%
# [8] = read-out: HIV-1IIIB IC50, MT-2 cells, multi-cycle, mean ± SD, n=3
# Sequence of hERG potassium channel (Q12809 whole entry): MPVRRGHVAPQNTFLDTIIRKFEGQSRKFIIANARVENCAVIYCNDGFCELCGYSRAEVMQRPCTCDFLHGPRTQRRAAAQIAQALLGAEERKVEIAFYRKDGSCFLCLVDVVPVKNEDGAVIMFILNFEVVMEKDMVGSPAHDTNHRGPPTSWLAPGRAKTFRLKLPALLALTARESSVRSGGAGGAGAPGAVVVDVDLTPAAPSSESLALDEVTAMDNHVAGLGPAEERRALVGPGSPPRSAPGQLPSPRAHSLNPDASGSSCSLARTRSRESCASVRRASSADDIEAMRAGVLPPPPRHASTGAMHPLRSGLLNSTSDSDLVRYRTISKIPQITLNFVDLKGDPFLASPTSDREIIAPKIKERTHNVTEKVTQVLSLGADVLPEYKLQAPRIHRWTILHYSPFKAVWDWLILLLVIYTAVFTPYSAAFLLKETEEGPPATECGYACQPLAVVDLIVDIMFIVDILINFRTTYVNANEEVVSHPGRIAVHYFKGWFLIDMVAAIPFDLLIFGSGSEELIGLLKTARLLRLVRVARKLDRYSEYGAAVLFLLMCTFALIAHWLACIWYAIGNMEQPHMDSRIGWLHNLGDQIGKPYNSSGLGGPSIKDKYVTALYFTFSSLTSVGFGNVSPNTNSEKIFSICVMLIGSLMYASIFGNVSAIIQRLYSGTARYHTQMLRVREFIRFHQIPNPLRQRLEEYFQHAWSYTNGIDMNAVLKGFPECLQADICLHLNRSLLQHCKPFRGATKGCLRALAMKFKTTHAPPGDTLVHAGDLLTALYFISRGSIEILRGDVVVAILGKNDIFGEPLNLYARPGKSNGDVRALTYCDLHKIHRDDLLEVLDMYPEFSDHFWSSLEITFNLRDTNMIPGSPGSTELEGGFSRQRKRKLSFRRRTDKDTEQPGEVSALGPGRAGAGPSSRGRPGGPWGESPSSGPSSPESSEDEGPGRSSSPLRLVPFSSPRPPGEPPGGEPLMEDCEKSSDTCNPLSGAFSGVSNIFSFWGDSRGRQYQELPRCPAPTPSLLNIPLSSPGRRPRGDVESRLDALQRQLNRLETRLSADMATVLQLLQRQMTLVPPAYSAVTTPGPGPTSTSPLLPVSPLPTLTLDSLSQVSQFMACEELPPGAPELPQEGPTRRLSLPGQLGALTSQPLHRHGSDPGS
compound,measurement,setting,value
"NC[C@H](NC(=O)c1ccc(-c2ccc(C(F)(F)F)cc2)[nH]1)c1nc(CO)cs1 [Compound 49, N-(2-Amino-1-(4-(hydroxymethyl)thiazol-2-yl)ethyl)-5-(4-(trifluoromethyl)phenyl)-1H-pyrrole-2-carboxamide]",fold enhancement in antiviral potency (IC50) after CH2OH switch C5 to C4,"HIV-1HXB2; HIV-1HXB2 in TZM-bl cells, 39 vs NBD-14107, 49 vs 47, 55 vs 53",~ 3.4 fold
COc1cc(N)c(Cl)cc1C(=O)NC1CCN(CCCOc2ccc(F)cc2)CC1OC (centres unmarked) [Cisapride],inhibition at 0.09 µM,hERG potassium channel,85.2 ± 2.3%
"NCC(NC(=O)c1ccc(-c2cc(F)c(Cl)c(F)c2)[nH]1)c1nc(CO)cs1 (centres unmarked) [Compound 39, N-(2-Amino-1-(4-(hydroxymethyl)thiazol-2-yl)ethyl)-5-(4-chloro-3,5-difluorophenyl)-1H-pyrrole-2-carboxamide]",parent compound remaining at 120 min (% of 0 min),[1],88.5 to 90.4%
same,CC50 at 3 days,[2],39.3 ± 2.3 µM
same,bound to proteins in human plasma,Plasma protein binding,> 99%
same,solubility at 90 min,Aqueous solubility; [6],~206 µg/mL
same,solubility at 90 min,Aqueous solubility; [7],100 to 500 µM
same,Control VSV-G IC50,VSV-G,poorly active
same,IC50 HIV-1 mediated cell-cell fusion,[3],active at slightly higher concentration than NBD-556 and 55
"NCC(NC(=O)c1ccc(-c2ccc(C(F)(F)F)c(F)c2)[nH]1)c1nc(CO)cs1 (centres unmarked) [Compound 55, N-(2-Amino-1-(4-(hydroxymethyl)thiazol-2-yl)ethyl)-5-(3-fluoro-4-(trifluoromethyl)-phenyl)-1H-pyrrole-2-carboxamide]",parent compound remaining at 120 min (% of 0 min),[1],88.5 to 90.4%
same,bound to proteins in human plasma,Plasma protein binding,> 99%
same,solubility at 90 min,Aqueous solubility; [6],100 µM to 500 µM and 42.4 µg/mL to 214 µg/mL
same,solubility at 90 min,Aqueous solubility; [7],100 to 500 µM
same,Control VSV-G IC50,VSV-G,poorly active
"N-(2-Amino-1-(5-(hydroxymethyl)oxazol-2-yl)ethyl)-5-(4-chloro-3,5-difluorophenyl)-1H-pyrrole-2-carboxamide [Compound 67]",IC50,HIV-1IIIB; [8],0.8 ± 0.1 µM
same,CC50,MT-2 cells,26.5 ± 2 µM
same,CC50,TZM-bl cells,27.7 ± 0.5 µM
"COc1cnc(-n2cnc(C)n2)c2[nH]cc(C(=O)C(=O)N3CCN(C(=O)c4ccccc4)CC3)c12 [BMS-626529, reference compound]",solubility at 90 min,Aqueous solubility; [6],100 µM to 500 µM and 47.3 µg/mL to 237 µg/mL
same,IC50,[4],~0.008 µM
"N-(2-Amino-1-(5-(hydroxymethyl)thiazol-2-yl)ethyl)-5-(3,5-difluoro-4-(trifluoromethyl)-phenyl)-1H-pyrrole-2-carboxamide [Compound 57]",CC50,MT-2 cells,14.3 ± 0.6 µM
same,CC50,TZM-bl cells,23 ± 0.6 µM
"NC[C@@H](NC(=O)c1ccc(-c2ccc(C(F)(F)F)cc2)[nH]1)c1ncc(CO)s1 [Compound 48, N-(2-Amino-1-(5-(hydroxymethyl)thiazol-2-yl)ethyl)-5-(4-(trifluoromethyl)phenyl)-1H-pyrrole-2-carboxamide]",CC50 at 3 days,[2],46.4 ± 4.7 µM
same,CC50 at 72 h,[5],42.4 ± 1 µM
same,Control VSV-G IC50,VSV-G,poorly active
same,IC50 HIV-1 mediated cell-cell fusion,[3],active at slightly higher concentration than NBD-556 and 55
"N-(2-Amino-1-(5-(hydroxymethyl)oxazol-2-yl)ethyl)-5-(4-chloro-3,5-difluorophenyl)-1H-pyrrole-2-carboxamide [Compound 66]",IC50,"HIV-1HXB2; read-out: HIV-1HXB2 IC50, TZM-bl cells, single-cycle, mean ± SD, n=3",0.76 ± 0.1 µM
same,IC50,HIV-1IIIB; [8],0.9 ± 0.1 µM
same,CC50,MT-2 cells,44.7 ± 1.5 µM
same,CC50,TZM-bl cells,30.9 ± 1.7 µM
"CNC[C@H](NC(=O)c1ccc(-c2ccc(C(F)(F)F)cc2)[nH]1)c1nc(CO)cs1 [Compound 51, N-(1-(4-(Hydroxymethyl)thiazol-2-yl)-2-(methylamino)ethyl)-5-(4-(trifluoromethyl)phenyl)-1H-pyrrole-2-carboxamide]",IC50,"HIV-1IIIB; Human immunodeficiency virus 1, MT2, read-out: HIV-1IIIB IC50",0.1 µM
"N-(2-Amino-1-(5-(hydroxymethyl)thiazol-2-yl)ethyl)-5-(3,5-difluoro-4-(trifluoromethyl)-phenyl)-1H-pyrrole-2-carboxamide [Compound 58]",CC50,MT-2 cells,15.5 ± 0.45 µM
same,CC50,TZM-bl cells,23.5 ± 0.5 µM
